Experimental data taken from the NIST ThermoML archive (doi:10.1016/j.jct.2016.03.025).
± gives the expanded uncertainty stated by the source.

Columns and labels:
[1] = 293.15 K; 101.33 kPa; Liquid; Vibrating tube method
[2] = refractive index (Na D-line) (dimensionless); details: 293.15 K; 101.33 kPa; Liquid; Standard Abbe refractometry
[3] = wn = mass fraction of the nth substance listed; details: 293.15 K; 101.3 kPa; Liquid; Vibrating tube method; w1 = 0.85
[4] = refractive index (Na D-line) (dimensionless); wn = mass fraction of the nth substance listed; details: 293.15 K; 101.3 kPa; Liquid; Standard Abbe refractometry; w1 = 0.85

Row | Compound | mass density [1] | refractive index [2] | mass density [3] | refractive index [4]
1 | CCCCCCOC(C)=O [hexyl ethanoate] | 873.3 ± 1.2 kg/m3 | 1.4096 ± 0.0011 | – | –
2 | O=P(O)(O)O [phosphoric acid] + O | – | – | 1682.8 ± 1 kg/m3 | 1.4345 ± 0.001
3 | CC(=O)OC1CCCCC1 [cyclohexyl ethanoate] | 970.1 ± 1.2 kg/m3 | 1.4425 ± 0.0011 | – | –
4 | O [water] | 998.3 ± 1 kg/m3 | 1.333 ± 0.001 | – | –
